Test results reported in ChEMBL document CHEMBL5678818, “Discovery of potent SOS1 inhibitors that block RAS activation via disruption of the RAS-SOS1 interaction” (Proc Natl Acad Sci U S A, 2019).

How the values were obtained:
[1] = test system: Leucine-rich repeat serine/threonine-protein kinase 2 (Homo sapiens), Q5S007 [G2019S]; assay: Inhibition of LRRK2 G2019S mutant (unknown origin) assessed as residual activity at 1000 nM by KINOMEscan analysis relative to control
[2] = target: Tyrosine-protein kinase Lyn (Homo sapiens) (UniProt P07948); assay: Inhibition of LYN (unknown origin) assessed as residual activity at 1000 nM by KINOMEscan analysis relative to control
[3] = target: T1, Mitogen-activated protein kinase kinase kinase 2 (Homo sapiens) (UniProt Q9Y2U5); assay: Inhibition of MAP3K2 (unknown origin) assessed as residual activity at 1000 nM by KINOMEscan analysis relative to control
T1 sequence (whole entry): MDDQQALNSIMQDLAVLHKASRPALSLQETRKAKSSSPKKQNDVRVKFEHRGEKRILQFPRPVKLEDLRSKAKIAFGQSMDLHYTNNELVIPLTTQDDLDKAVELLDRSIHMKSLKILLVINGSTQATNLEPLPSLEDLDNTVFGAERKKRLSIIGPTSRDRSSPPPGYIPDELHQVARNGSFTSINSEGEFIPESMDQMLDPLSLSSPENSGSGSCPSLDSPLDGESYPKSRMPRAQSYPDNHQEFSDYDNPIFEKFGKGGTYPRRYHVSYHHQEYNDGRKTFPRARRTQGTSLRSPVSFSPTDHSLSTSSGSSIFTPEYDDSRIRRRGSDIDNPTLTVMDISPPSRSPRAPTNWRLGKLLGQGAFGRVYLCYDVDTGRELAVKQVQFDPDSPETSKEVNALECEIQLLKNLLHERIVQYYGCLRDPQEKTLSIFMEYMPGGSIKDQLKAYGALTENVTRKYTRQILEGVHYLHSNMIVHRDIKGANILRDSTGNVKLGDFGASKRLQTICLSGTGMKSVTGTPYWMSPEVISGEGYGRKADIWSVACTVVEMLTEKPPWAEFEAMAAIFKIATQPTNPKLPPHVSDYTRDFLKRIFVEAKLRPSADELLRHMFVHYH

[4] = target: T2, Receptor-interacting serine/threonine-protein kinase 4 (Homo sapiens) (UniProt P57078); assay: Inhibition of RIPK4 (unknown origin) assessed as residual activity at 1000 nM by KINOMEscan analysis relative to control
T2 sequence (whole entry): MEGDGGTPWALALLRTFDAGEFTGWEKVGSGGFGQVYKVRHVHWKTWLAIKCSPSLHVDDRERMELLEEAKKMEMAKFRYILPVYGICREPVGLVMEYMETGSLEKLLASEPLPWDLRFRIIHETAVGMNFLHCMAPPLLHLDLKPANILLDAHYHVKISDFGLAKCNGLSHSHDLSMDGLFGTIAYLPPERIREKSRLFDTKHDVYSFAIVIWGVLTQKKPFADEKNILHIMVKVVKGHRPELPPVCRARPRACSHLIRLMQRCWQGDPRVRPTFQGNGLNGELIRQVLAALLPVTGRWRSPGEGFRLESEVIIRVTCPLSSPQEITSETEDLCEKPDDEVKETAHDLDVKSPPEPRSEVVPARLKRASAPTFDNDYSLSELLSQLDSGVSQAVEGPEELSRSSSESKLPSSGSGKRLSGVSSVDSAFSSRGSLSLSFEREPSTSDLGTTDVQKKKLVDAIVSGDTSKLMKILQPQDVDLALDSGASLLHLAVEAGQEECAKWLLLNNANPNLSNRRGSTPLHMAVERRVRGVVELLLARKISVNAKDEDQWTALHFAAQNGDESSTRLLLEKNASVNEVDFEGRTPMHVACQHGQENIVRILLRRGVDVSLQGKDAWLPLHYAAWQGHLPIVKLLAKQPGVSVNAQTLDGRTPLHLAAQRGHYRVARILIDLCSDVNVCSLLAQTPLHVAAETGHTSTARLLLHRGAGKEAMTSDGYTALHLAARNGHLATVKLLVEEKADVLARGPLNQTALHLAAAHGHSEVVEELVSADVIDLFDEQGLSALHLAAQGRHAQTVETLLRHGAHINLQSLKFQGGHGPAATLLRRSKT

[5] = target: T3, Serine/threonine-protein kinase Sgk3 (Homo sapiens) (UniProt Q96BR1); assay: Inhibition of SGK3 (unknown origin) assessed as residual activity at 1000 nM by KINOMEscan analysis relative to control
T3 sequence (whole entry): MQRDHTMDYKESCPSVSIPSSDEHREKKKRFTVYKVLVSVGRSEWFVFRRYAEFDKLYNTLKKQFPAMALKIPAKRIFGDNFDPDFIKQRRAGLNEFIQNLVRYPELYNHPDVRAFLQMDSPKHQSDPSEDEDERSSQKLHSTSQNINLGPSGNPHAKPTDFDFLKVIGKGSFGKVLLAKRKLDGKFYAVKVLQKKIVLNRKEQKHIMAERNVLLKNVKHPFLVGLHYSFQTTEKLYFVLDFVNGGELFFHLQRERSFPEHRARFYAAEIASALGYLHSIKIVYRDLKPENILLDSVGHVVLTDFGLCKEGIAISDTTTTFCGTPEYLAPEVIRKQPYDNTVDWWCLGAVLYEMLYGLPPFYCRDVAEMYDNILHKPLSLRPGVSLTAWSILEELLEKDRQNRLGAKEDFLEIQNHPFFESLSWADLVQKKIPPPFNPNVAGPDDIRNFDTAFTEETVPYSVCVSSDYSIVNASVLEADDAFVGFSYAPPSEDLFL

[6] = target: Serine/threonine-protein kinase 4 (Homo sapiens) (UniProt Q13043); assay: Inhibition of MST1 (unknown origin) assessed as residual activity at 1000 nM by KINOMEscan analysis relative to control
Sequence of Serine/threonine-protein kinase 4 (Homo sapiens) (Q13043 whole entry, looked up): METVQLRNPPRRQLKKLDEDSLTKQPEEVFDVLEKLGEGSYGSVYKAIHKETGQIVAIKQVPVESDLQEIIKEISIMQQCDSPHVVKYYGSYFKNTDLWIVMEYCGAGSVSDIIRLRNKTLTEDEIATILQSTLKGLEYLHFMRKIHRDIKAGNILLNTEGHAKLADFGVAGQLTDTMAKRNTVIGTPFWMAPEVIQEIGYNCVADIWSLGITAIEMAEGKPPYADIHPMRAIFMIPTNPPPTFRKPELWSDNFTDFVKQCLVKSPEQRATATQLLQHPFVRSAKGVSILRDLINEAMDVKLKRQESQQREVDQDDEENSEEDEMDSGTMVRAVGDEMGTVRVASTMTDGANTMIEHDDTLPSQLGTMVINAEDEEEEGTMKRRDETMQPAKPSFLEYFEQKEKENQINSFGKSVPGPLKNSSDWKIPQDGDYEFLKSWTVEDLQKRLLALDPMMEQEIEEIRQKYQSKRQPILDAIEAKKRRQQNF

Sequence of Leucine-rich repeat serine/threonine-protein kinase 2 (Homo sapiens), Q5S007 [G2019S] (Q5S007 whole entry G2019S): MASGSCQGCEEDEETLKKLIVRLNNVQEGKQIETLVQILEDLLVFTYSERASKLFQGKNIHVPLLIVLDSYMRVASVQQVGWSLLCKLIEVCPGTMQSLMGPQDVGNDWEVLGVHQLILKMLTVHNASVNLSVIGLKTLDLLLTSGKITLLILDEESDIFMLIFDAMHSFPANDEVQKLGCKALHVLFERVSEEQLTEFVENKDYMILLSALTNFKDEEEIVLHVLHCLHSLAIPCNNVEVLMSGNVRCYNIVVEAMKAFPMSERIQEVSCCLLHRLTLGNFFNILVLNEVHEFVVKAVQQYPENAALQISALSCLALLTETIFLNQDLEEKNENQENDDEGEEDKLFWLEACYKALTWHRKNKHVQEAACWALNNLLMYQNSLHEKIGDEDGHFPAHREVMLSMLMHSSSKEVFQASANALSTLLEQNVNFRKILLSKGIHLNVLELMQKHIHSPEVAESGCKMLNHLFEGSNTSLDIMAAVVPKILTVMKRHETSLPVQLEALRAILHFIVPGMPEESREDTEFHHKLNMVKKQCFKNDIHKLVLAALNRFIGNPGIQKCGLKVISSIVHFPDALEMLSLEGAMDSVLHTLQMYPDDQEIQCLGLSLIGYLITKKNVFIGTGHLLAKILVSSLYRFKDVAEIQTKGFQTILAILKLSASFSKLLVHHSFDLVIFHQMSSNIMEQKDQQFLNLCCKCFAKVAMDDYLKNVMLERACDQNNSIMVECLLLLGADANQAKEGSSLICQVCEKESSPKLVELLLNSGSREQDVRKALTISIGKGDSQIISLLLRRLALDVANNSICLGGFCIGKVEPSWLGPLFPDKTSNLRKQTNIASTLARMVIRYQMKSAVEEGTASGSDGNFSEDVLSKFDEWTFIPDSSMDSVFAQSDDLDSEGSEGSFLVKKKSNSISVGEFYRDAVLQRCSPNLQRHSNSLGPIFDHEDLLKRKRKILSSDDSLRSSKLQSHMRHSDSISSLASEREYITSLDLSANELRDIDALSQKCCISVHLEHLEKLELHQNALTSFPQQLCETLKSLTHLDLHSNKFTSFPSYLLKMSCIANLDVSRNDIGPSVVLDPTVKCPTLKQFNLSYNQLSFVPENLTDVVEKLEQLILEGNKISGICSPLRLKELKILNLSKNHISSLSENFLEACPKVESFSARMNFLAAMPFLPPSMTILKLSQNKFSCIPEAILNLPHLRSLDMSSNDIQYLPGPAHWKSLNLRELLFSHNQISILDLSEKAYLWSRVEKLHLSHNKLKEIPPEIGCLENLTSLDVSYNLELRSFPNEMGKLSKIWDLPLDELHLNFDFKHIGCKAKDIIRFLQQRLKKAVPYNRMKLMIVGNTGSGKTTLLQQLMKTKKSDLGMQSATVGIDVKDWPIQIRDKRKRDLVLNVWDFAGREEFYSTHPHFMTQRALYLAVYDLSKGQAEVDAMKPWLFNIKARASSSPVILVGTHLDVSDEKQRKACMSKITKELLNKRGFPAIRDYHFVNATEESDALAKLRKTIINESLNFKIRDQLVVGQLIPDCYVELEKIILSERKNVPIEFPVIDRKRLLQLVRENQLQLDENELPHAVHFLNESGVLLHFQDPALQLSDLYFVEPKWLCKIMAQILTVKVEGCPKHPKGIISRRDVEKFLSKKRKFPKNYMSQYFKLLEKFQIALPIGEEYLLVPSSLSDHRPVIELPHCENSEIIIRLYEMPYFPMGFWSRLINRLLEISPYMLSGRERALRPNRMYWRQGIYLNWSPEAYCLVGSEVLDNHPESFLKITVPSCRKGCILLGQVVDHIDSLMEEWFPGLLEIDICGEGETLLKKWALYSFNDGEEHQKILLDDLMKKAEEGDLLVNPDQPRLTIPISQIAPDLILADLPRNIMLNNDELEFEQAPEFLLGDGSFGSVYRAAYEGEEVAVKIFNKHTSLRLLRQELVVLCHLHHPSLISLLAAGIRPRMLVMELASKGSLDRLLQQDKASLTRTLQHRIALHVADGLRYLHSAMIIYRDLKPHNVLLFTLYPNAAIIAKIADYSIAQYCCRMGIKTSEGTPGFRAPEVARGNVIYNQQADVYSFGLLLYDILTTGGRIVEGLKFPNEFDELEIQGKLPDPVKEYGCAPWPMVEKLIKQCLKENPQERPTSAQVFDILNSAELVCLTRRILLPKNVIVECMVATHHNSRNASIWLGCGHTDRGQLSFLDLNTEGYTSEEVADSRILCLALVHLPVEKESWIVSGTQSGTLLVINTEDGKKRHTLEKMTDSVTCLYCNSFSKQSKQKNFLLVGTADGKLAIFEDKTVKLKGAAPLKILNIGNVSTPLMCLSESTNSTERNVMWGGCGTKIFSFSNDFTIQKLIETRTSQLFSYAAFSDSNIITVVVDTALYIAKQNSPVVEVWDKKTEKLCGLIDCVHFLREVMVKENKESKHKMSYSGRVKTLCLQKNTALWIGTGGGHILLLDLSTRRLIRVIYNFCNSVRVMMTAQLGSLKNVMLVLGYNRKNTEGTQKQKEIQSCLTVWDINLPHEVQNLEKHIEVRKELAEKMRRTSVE
Sequence of Tyrosine-protein kinase Lyn (Homo sapiens) (P07948 2-512 limits assumed): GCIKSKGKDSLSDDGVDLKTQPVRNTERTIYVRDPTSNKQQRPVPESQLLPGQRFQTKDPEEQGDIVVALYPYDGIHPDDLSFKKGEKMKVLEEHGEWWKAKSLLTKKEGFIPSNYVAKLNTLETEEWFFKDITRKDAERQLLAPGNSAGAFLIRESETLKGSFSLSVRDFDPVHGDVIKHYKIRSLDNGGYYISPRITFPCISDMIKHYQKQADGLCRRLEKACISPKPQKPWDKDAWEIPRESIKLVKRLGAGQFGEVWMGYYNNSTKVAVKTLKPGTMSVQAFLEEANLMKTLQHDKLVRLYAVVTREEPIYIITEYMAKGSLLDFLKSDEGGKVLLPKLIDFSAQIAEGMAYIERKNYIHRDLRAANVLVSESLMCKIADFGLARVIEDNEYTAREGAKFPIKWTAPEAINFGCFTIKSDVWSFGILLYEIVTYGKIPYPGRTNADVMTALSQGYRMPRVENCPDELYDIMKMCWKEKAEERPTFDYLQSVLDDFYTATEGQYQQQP

Row | Compound | Activity [1] | Activity [2] | Activity [3] | Activity [4] | Activity [5] | Activity [6]
1 | COc1cc2nc(C)nc(N[C@H](C)c3cccc(-c4cn[nH]c4)c3)c2cc1OC | 91% | 100% | 76% | 70% | 90% | 97%
2 | COc1cc2ncnc(N[C@H](C)c3cccc4ccccc34)c2cc1OC | 95% | 91% | 100% | 93% | 100% | 99%
